The text below walks through data of patent US10214507B2, “Carbazole-containing amides, carbamates, and ureas as cryptochrome modulators” (Reset Therapeutics, Inc., priority 2014, dated 2019).

In the test the test system is stable U20S reporter cells harboring Per2-dLuc. The experiment in a line: Per2 assay for evaluating the potency of test compounds (circadian luciferase reporter). In kind it is cell-based. Particulars: amplitude of Per2-dLuc luminescence vs log concentration. How it is done: Compounds were screened by using a high-throughput circadian assay system as previously described in Zhang, E. E. et al. Cell, 2009, 139, 199-210. In brief, stable U20S reporter cells harboring Per2-dLuc were plated at a density of 30,000 cells/well in Corning 96-well, solid white, flat bottom, TC-treated microplates (Corning®), and incubated for 48 hours at 37° C. in the presence of 5% CO2 in a medium of Dulbecco's Modified Eagle Medium (DMEM) supplemented with 10% fetal bovine serum (FBS) and penicillin (100 units/mL)-streptomycin (100 μg/mL). […] DMSO stocks are then serially diluted in DMSO, typically diluting 3-fold for each dilution step. Following the 48 h period, cell culture medium is removed from plated cells and cells are synchronized with 200 μL/well of complete cell culture medium (described above), supplemented with 5 μM forskolin (Tocris®) and 1 mM beetle luciferin (Promega®). Immediately following synchronization, 1 μL of compound dilution is added to each well. Plates are sealed, shaken briefly, and gene expression was monitored by measuring luminescence (Tecan® Infinite M200 or Tecan® Infinite M200 Pro) continuously for a minimum of 3 days at 35° C. Raw luminescence data (counts) are first analyzed using Multicycle™ software (Actimetrics, Inc.) to determine the amplitude (amp), period, and phase (phz) for each compound concentration. The period length for control wells (i.e. no compound, DMSO only) should be 26-30 h. Amp data are then plotted against the logarithm compound concentration (M) and analyzed by nonlinear regression analysis to determine the EC50.
In general terms: A reporter such as luciferase makes a cellular process visible.
Take `CC1CCN(CC(O)Cn2c3ccc(F)cc3c3cc(F)ccc32)C(=O)C1` (stereo not drawn) [Compound 49, 1-(3-(3,6-difluoro-9H-carbazol-9-yl)-2-hydroxypropyl)-4-methylpiperidin-2-one]: the EC50 (in general, the concentration giving half of the maximal effect) was 137 nM.
The result for `CC1(C)CCN(CC(O)Cn2c3ccc(F)cc3c3cc(F)ccc32)C1=O` (stereo not drawn) [Compound 15, 1-(3-(3,6-difluoro-9H-carbazol-9-yl)-2-hydroxypropyl)-3,3-dimethylpyrrolidin-2-one] reads 164 nM; that for `O=C1N(CC(O)Cn2c3ccc(F)cc3c3cc(F)ccc32)CCN1C1CCCC1` (stereo not drawn) [Compound 91, 1-cyclopentyl-3-(3-(3,6-difluoro-9H-carbazol-9-yl)-2-hydroxypropyl)imidazolidin-2-one], 621 nM.
With `CCC1CC(=O)N(CC(C)(O)Cn2c3ccc(F)cc3c3cc(F)ccc32)C1` (stereo not drawn) [Compound 46, 1-(3-(3,6-difluoro-9H-carbazol-9-yl)-2-hydroxy-2-methylpropyl)-4-ethylpyrrolidin-2-one] the figure was 618 nM; with `CC1CCC(=O)N(CC(O)Cn2c3ccc(F)cc3c3cc(F)ccc32)C1` (stereo not drawn) [Compound 37, 1-(3-(3,6-difluoro-9H-carbazol-9-yl)-2-hydroxypropyl)-5-methylpiperidin-2-one], 224 nM.
With `O=C1N(CC(O)Cn2c3ccccc3c3ccccc32)CCCN1C1CCC1` (stereo not drawn) [Compound 100, 1-(3-(9H-carbazol-9-yl)-2-hydroxypropyl)-3-cyclobutyltetrahydropyrimidin-2(1H)-one] the figure was 721 nM; with `CCC1CC(=O)N(CC(O)Cn2c3ccc(F)cc3c3cc(F)ccc32)C1` (stereo not drawn) [Compound 45, 1-(3-(3,6-difluoro-9H-carbazol-9-yl)-2-hydroxypropyl)-4-ethylpyrrolidin-2-one], 52 nM.
Compound `CC(C)N1CCCN(CC(C)(O)Cn2c3ccc(F)cc3c3cc(F)ccc32)C1=O` (stereo not drawn) [Compound 80, 1-(3-(3,6-difluoro-9H-carbazol-9-yl)-2-hydroxy-2-methylpropyl)-3-isopropyltetrahydropyrimidin-2(1H)-one] came in with an EC50 of 1100 nM.
Consider `CC(O)(CN1CCOCC1=O)Cn1c2ccc(F)cc2c2cc(F)ccc21` (stereo not drawn) [Compound 56, 4-(3-(3,6-difluoro-9H-carbazol-9-yl)-2-hydroxy-2-methylpropyl)morpholin-3-one], for which the EC50 was determined as 1060 nM.
With `CN1CCCN(CC(O)Cn2c3ccccc3c3ccccc32)C1=O` (stereo not drawn) [Compound 2, 1-(3-(9H-carbazol-9-yl)-2-hydroxypropyl)-3-methyltetrahydropyrimidin-2(1H)-one], the EC50 worked out at 736 nM.
The result for `O=C1CC(C2CC2)CN1CC(O)Cn1c2ccc(F)cc2c2cc(F)ccc21` (stereo not drawn) [Compound 42, 4-cyclopropyl-1-(3-(3,6-difluoro-9H-carbazol-9-yl)-2-hydroxypropyl)pyrrolidin-2-one] reads 420 nM; that for `CC1CCCC(=O)N1CC(O)Cn1c2ccccc2c2ccccc21` (stereo not drawn) [Compound 63, 1-(3-(9H-carbazol-9-yl)-2-hydroxypropyl)-6-methylpiperidin-2-one], 541 nM.
The result for `O=C1N(CC(O)Cn2c3ccccc3c3ccccc32)CCCN1C1CC1` (stereo not drawn) [Compound 99, 1-(3-(9H-carbazol-9-yl)-2-hydroxypropyl)-3-cyclopropyltetrahydropyrimidin-2(1H)-one] reads 555 nM; that for `CC1CCN(CC(O)Cn2c3ccc(F)cc3c3cc(F)ccc32)C1=O` (stereo not drawn) [Compound 29, 1-(3-(3,6-difluoro-9H-carbazol-9-yl)-2-hydroxypropyl)-3-methylpyrrolidin-2-one], 422 nM.
For the compound `CC1CCC(=O)N1CC(C)(O)Cn1c2ccc(F)cc2c2cc(F)ccc21` (stereo not drawn) [Compound 35, 1-(3-(3,6-difluoro-9H-carbazol-9-yl)-2-hydroxy-2-methylpropyl)-5-methylpyrrolidin-2-one], the EC50 turned out to be 678 nM.
`O=C1C(C2CCCC2)CCCN1CC(O)Cn1c2ccc(F)cc2c2cc(F)ccc21` (stereo not drawn) [Compound 23, 3-cyclopentyl-1-(3-(3,6-difluoro-9H-carbazol-9-yl)-2-hydroxypropyl)piperidin-2-one] yielded an EC50 of 399 nM.
`C[C@@H]1CCC(=O)N(C[C@H](O)Cn2c3ccc(F)cc3c3cc(F)ccc32)C1` [Compound 134, (R)-1-((R)-3-(3,6-difluoro-9H-carbazol-9-yl)-2-hydroxypropyl)-5-methylpiperidin-2-one] came in with a concentration for a half-maximal effect (EC50) of 397 nM.
For the compound `O=C1CCCCN1CC(O)Cn1c2ccc(F)cc2c2cc(F)ccc21` (stereo not drawn) [Compound 4, 1-(3-(3,6-difluoro-9H-carbazol-9-yl)-2-hydroxypropyl)piperidin-2-one], the response was half-maximal at 192 nM (EC50).
`C[C@@](O)(CN1CC[C@H](F)C1=O)Cn1c2ccccc2c2ccccc21` [Compound 124, (S)-1-((S)-3-(9H-carbazol-9-yl)-2-hydroxy-2-methylpropyl)-3-fluoropyrrolidin-2-one] displayed an EC50 of 309 nM.
With `O=C1NCCCN1CC(O)Cn1c2ccc(F)cc2c2cc(F)ccc21` (stereo not drawn) [Compound 71, 1-(3-(3,6-difluoro-9H-carbazol-9-yl)-2-hydroxypropyl)tetrahydropyrimidin-2(1H)-one] the figure was 188 nM; with `C[C@@H]1CN(C[C@H](O)Cn2c3ccc(F)cc3c3cc(F)ccc32)C(=O)N1` [Compound 136, (R)-1-((R)-3-(3,6-difluoro-9H-carbazol-9-yl)-2-hydroxypropyl)-4-methylimidazolidin-2-one], 826 nM.
The result for `CC(C)N1CCN(CC(O)Cn2c3ccccc3c3ccccc32)C1=O` (stereo not drawn) [Compound 98, 1-(3-(9H-carbazol-9-yl)-2-hydroxypropyl)-3-isopropylimidazolidin-2-one] reads 269 nM; that for `CCC1CCCN(CC(O)Cn2c3ccc(F)cc3c3cc(F)ccc32)C1=O` (stereo not drawn) [Compound 24, 1-(3-(3,6-difluoro-9H-carbazol-9-yl)-2-hydroxypropyl)-3-ethylpiperidin-2-one], 332 nM; that for `CC1CCCC(=O)N1CC(O)Cn1c2ccc(F)cc2c2cc(F)ccc21` (stereo not drawn) [Compound 39, 1-(3-(3,6-difluoro-9H-carbazol-9-yl)-2-hydroxypropyl)-6-methylpiperidin-2-one], 342 nM.
`C[C@@H]1CCC(=O)N(C[C@H](O)Cn2c3ccccc3c3ccccc32)C1` [Compound 131, (R)-1-((R)-3-(9H-carbazol-9-yl)-2-hydroxypropyl)-5-methylpiperidin-2-one] registered an EC50 of 280 nM.
With `CC(C)C1CCN(CC(O)Cn2c3ccc(F)cc3c3cc(F)ccc32)C1=O` (stereo not drawn) [Compound 22, 1-(3-(3,6-difluoro-9H-carbazol-9-yl)-2-hydroxypropyl)-3-isopropylpyrrolidin-2-one] the figure was 261 nM.
`C[C@H]1CCN(C[C@H](O)Cn2c3ccc(F)cc3c3cc(F)ccc32)C1=O` [Compound 115, (S)-1-((R)-3-(3,6-difluoro-9H-carbazol-9-yl)-2-hydroxypropyl)-3-methylpyrrolidin-2-one] showed an EC50 of 500 nM.
On to `CC(C)N1CCN(CC(O)Cn2c3ccc(F)cc3c3cc(F)ccc32)C1=O` (stereo not drawn) [Compound 90, 1-(3-(3,6-difluoro-9H-carbazol-9-yl)-2-hydroxypropyl)-3-isopropylimidazolidin-2-one], for which the midpoint of the response, the EC50, lay at 605 nM.
On to `O=C1C(F)CCCN1CC(O)Cn1c2ccccc2c2ccccc21` (stereo not drawn) [Compound 70, 1-(3-(9H-carbazol-9-yl)-2-hydroxypropyl)-3-fluoropiperidin-2-one], for which the EC50 is 61 nM.
With `O=C1N(CC(O)Cn2c3ccccc3c3ccccc32)CCN1C1CC1` (stereo not drawn) [Compound 97, 1-(3-(9H-carbazol-9-yl)-2-hydroxypropyl)-3-cyclopropylimidazolidin-2-one] the figure was 315 nM.
The result for `CCC1CCC(=O)N1CC(O)Cn1c2ccc(F)cc2c2cc(F)ccc21` (stereo not drawn) [Compound 32, 1-(3-(3,6-difluoro-9H-carbazol-9-yl)-2-hydroxypropyl)-5-ethylpyrrolidin-2-one] reads 539 nM.
Turning to `CC1CCN(CC(O)Cn2c3ccc(F)cc3c3cc(F)ccc32)C(=O)N1C` (stereo not drawn) [Compound 101, 1-(3-(3,6-difluoro-9H-carbazol-9-yl)-2-hydroxypropyl)-3,4-dimethyltetrahydropyrimidin-2(1H)-one], the response was half-maximal at 417 nM (EC50).
The compound `C[C@H]1CCN(C[C@H](O)Cn2c3ccccc3c3ccccc32)C1=O` [Compound 117, (S)-1-((R)-3-(9H-carbazol-9-yl)-2-hydroxypropyl)-3-methylpyrrolidin-2-one] had an EC50 of 188 nM.
The result for `O=C1N(CC(O)Cn2c3ccc(F)cc3c3cc(F)ccc32)CCCN1C1CCCC1` (stereo not drawn) [Compound 76, 1-cyclopentyl-3-(3-(3,6-difluoro-9H-carbazol-9-yl)-2-hydroxypropyl)tetrahydropyrimidin-2(1H)-one] reads 609 nM; that for `CC(O)(CN1CCC(F)C1=O)Cn1c2ccc(F)cc2c2cc(F)ccc21` (stereo not drawn) [Compound 10, 1-(3-(3,6-difluoro-9H-carbazol-9-yl)-2-hydroxy-2-methylpropyl)-3-fluoropyrrolidin-2-one], 487 nM.
Take `CC1CCC(=O)N(CC(C)(O)Cn2c3ccc(F)cc3c3cc(F)ccc32)C1` (stereo not drawn) [Compound 38, 1-(3-(3,6-difluoro-9H-carbazol-9-yl)-2-hydroxy-2-methylpropyl)-5-methylpiperidin-2-one]: the EC50 was found to be 1220 nM.
